# Results from ChEMBL document CHEMBL1201862, “PubChem BioAssay data set” (2004).
# The source made the active and inactive calls.
# Columns and labels:
# [1] = NIH-3T3 fibroblast cytotoxicity, dose response, cytotoxicity control, cell-based, fluorescence, Alamar Blue, secondary assay (AID 2327); format: functional;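 also: NIH-3T3 mouse fibroblasts cultured with fluconazole at 8 µg/mL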
# [2] = fluconazole-exposed Candida albicans growth modulators – fluorescence, retest, confirmation (AID 2467); format: functional, cell-based
# [3] = Trypanosoma cruzi growth suppression in host cells – NIH3T3 host cells, beta-gal luminescence, confirmation (AID 2044); format: functional, cell-based;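 also: intracellular parasites grown in NIH/3T3 mouse fibroblasts as host cells; luminescent beta-galactosidase reporter signal from transgenic T. cruzi replicating inside host cells; inhibitors lower the luminescence signal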
# [4] = biological target: Serine/threonine-protein phosphatase (Candida dubliniensis (strain CD36 / CBS 7987 / NCPF 3949 / NRRLY-17841) (Yeast), UniProt B9W6M3); assay: blockers of CaCl2-induced CDRE-lacZ signaling – S. cerevisiae, luminescence, secondary, dose response (AID 2388); format: functional, cell-based;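 also: yeast reporter cells carrying a calcineurin-responsive lacZ construct stimulated with calcium chloride; luminescent beta-galactosidase reporter signal in whole cells rather than isolated phosphatase activity; potency for inhibition where a drop in reporter signal means calcineurin blockade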
# [5] = NIH3T3 cell viability loss – ATP luminescence, mouse fibroblasts, counter-screen, dose response (AID 2010); format: functional, cell-based;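 also: cells exposed to compound for about 90 hours before reading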
# [6] = system: Candida albicans; assay: Candida growth reduction in fluconazole presence – CaCi-2 strain, Alamar Blue, dry powder, set 2, antifungal resistance reversal project, dose response (AID 488930); format: functional, organism-based
# [7] = system: HEK293; assay: EBV LMP1 TES2 canonical NF-kB signalling blockers – cell-based, HEK293, luciferase, cherry-pick, dose response (AID 588343); format: functional; details: Homo sapiens
# [8] = system: Candida albicans; assay: C. albicans growth inhibition with fluconazole – CaCi-2 strain, Alamar Blue, dry powder, set 4, dose response (AID 488943); format: functional, organism-based
# [9] = system: Candida albicans; assay: antifungal activity against resistant Candida strain – CaCi-8, fluconazole, Alamar Blue, dry powder, dose response (AID 488807); format: functional, organism-based
# [10] = system: Candida albicans; assay: Candida growth effect without fluconazole – C. albicans CaCi-2, dry powder, counter-screen for antifungal drug resistance project, dose response (AID 488802); format: functional, organism-based
# [11] = system: Candida albicans; assay: resistant Candida growth with fluconazole co-treatment – CaCi-8 strain, Alamar Blue, dry powder, set 2, dose response (AID 488909); format: functional, organism-based
# [12] = system: NIH3T3; assay: mammalian cell viability counter-check – Alamar Blue, fluconazole, dry powder, cytotoxicity control for antifungal drug resistance project, dose response (AID 488809); format: functional, cell-based; details: Mus musculus
# [13] = biological target: ATP-dependent molecular chaperone HSP82 (Candida albicans (strain WO-1) (Yeast), UniProt C4YTQ8); assay: steroid-induced GRE reporter decrease in yeast – S. cerevisiae, luminescence, Hsp90 inhibitor project, dose response (AID 2400); format: functional, cell-based;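 also: beta-galactosidase luminescence from glucocorticoid response element reporter as proxy for Hsp90 function; inhibitor potency where signal loss means Hsp90 inhibition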
# [14] = biological target: Protein Wnt-3a (Mus musculus, UniProt P27467); assay: antagonism of Wnt3a pathway luciferase reporter – Wnt-LIGHT cells, luminescence, selectivity assay for Gli-SUFU antagonist project, dose response (AID 651570); format: functional; details: read-out: IC50_Mean;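 also: Wnt-LIGHT reporter cells stimulated with conditioned medium from Wnt3a-producing cells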
# [15] = biological target: Dual specificity protein kinase CLK2 (Homo sapiens, UniProt P49760); format: functional
# [16] = biological target: ALK tyrosine kinase receptor (Homo sapiens, UniProt Q9UM73); format: functional;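 also: ALK tested as one member of a kinase panel screen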
# [17] = biological target: Serine/threonine-protein kinase D3 (Homo sapiens, UniProt O94806); format: functional;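 also: determined within a kinase panel screen, with PRKCN as the panel member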
# [18] = biological target: Tyrosine-protein kinase Lck (Homo sapiens, UniProt P06239); format: functional;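 also: lck was assayed as one member of a kinase panel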
# [19] = biological target: Death-associated protein kinase 3 (Homo sapiens, UniProt O43293); format: functional;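 also: measured as one member of a kinome-wide profiling panel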
# [20] = biological target: Activin receptor type-1 (Homo sapiens, UniProt Q04771); assay: Navigating the Kinome. Panel member name: ACVR1; format: functional
# [21] = biological target: Mitogen-activated protein kinase 8 (Homo sapiens, UniProt P45983); format: functional;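 also: value comes from one member of a kinome-wide kinase profiling panel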
# [22] = biological target: Serine/threonine-protein kinase pim-1 (Homo sapiens, UniProt P11309); format: functional
# [23] = biological target: Aurora kinase A (Homo sapiens, UniProt O14965); format: functional;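 also: value from the Navigating the Kinome kinase panel profiling, panel entry STK6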
# [24] = biological target: Tyrosine-protein kinase BTK (Homo sapiens, UniProt Q06187); format: functional
# [25] = biological target: Serine/threonine-protein kinase PAK 4 (Homo sapiens, UniProt O96013); format: functional;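 also: value obtained within a kinome profiling panel in which PAK4 was one of the panel members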
# [26] = biological target: Fibroblast growth factor receptor 1 (Homo sapiens, UniProt P11362); format: functional
# [27] = biological target: Casein kinase I isoform alpha (Homo sapiens, UniProt P48729); format: functional
# [28] = biological target: Tyrosine-protein kinase JAK3 (Homo sapiens, UniProt P52333); format: functional
# [29] = biological target: Mitogen-activated protein kinase 9 (Homo sapiens, UniProt P45984); format: functional;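 also: value from a kinome panel profiling assay, MAPK9 panel entry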
# [30] = biological target: LIM domain kinase 1 (Homo sapiens, UniProt P53667); assay: Navigating the Kinome. Panel member name: LIMK1; format: functional
# [31] = biological target: Serine/threonine-protein kinase TAO1 (Homo sapiens, UniProt Q7L7X3); format: functional
# [32] = biological target: T1, Glycogen synthase kinase-3 alpha (Homo sapiens, UniProt P49840); format: functional;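 as to Ki: GSK3A result taken from a broad kinome-wide kinase panel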
# [33] = biological target: Activated CDC42 kinase 1 (Homo sapiens, UniProt Q07912); assay: Navigating the Kinome. Panel member name: ACK1; format: functional
# [34] = biological target: Serine/threonine-protein kinase Chk1 (Homo sapiens, UniProt O14757); format: functional;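 also: measured as one member of a kinome-wide kinase profiling panel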
# [35] = biological target: G protein-coupled receptor kinase 5 (Homo sapiens, UniProt P34947); assay: Navigating the Kinome. Panel member name: GPRK5; format: functional
# [36] = biological target: Cyclin-dependent kinase 5 (Homo sapiens, UniProt Q00535); format: functional;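 also: CDK5 measured as one member of a kinase profiling panel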
# [37] = biological target: Focal adhesion kinase 1 (Homo sapiens, UniProt Q05397); format: functional;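 also: measured as one member of a kinome panel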
# [38] = biological target: Aurora kinase B (Homo sapiens, UniProt Q96GD4); format: functional
# [39] = biological target: Tyrosine-protein kinase Fyn (Homo sapiens, UniProt P06241); format: functional
# [40] = biological target: Serine/threonine-protein kinase Nek2 (Homo sapiens, UniProt P51955); format: functional
# [41] = biological target: Cyclin-dependent kinase 8 (Homo sapiens, UniProt P49336); assay: Navigating the Kinome. Panel member name: CDK8; format: functional
# [42] = biological target: Cyclin-dependent kinase 7 (Homo sapiens, UniProt P50613); format: functional;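 also: value comes from a kinome-wide kinase profiling panel in which CDK7 is one member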
# [43] = biological target: Vascular endothelial growth factor receptor 1 (Homo sapiens, UniProt P17948); format: functional;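 also: measured within a kinome-wide profiling panel, FLT1 as the panel member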
# [44] = biological target: BDNF/NT-3 growth factors receptor (Homo sapiens, UniProt Q16620); format: functional;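 also: NTRK2 measured as one member of a broad kinome-wide kinase profiling panel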
# [45] = biological target: Dual specificity protein kinase CLK4 (Homo sapiens, UniProt Q9HAZ1); format: functional
# [46] = biological target: Mitogen-activated protein kinase kinase kinase kinase 4 (Homo sapiens, UniProt O95819); format: functional
# [47] = biological target: Macrophage-stimulating protein receptor (Homo sapiens, UniProt Q04912); assay: Navigating the Kinome. Panel member name: MST1R; format: functional
# [48] = biological target: Dual specificity mitogen-activated protein kinase kinase 2 (Homo sapiens, UniProt P36507); assay: Navigating the Kinome. Panel member name: MAP2K2; format: functional
# [49] = biological target: Dual specificity tyrosine-phosphorylation-regulated kinase 1A (Homo sapiens, UniProt Q13627); format: functional;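 also: measured against DYRK1A as one member of a broad kinome profiling panel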
# [50] = biological target: Calcium/calmodulin-dependent protein kinase type II subunit alpha (Homo sapiens, UniProt Q9UQM7); assay: Navigating the Kinome. Panel member name: CAMK2A; format: functional
# [51] = biological target: Mitogen-activated protein kinase 14 (Homo sapiens, UniProt Q16539); format: functional;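 also: part of a kinome-wide panel, MAPK14 entry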
# [52] = biological target: Cell division cycle 7-related protein kinase (Homo sapiens, UniProt O00311); format: functional;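 also: value obtained from a kinome-wide kinase panel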
# [53] = biological target: Homeodomain-interacting protein kinase 2 (Homo sapiens, UniProt Q9H2X6); format: functional;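 also: measured within a kinome-wide kinase profiling panel, HIPK2 being one panel member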
# [54] = biological target: MAP kinase-interacting serine/threonine-protein kinase 2 (Homo sapiens, UniProt Q9HBH9); format: functional
# [55] = biological target: Interleukin-1 receptor-associated kinase 4 (Homo sapiens, UniProt Q9NWZ3); format: functional
# [56] = biological target: T2, Glycogen synthase kinase-3 beta (Homo sapiens, UniProt P49841); format: functional;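 as to Ki: value comes from a broad kinome profiling panel, with GSK3B as the panel member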
# [57] = biological target: cAMP-dependent protein kinase catalytic subunit alpha (Homo sapiens, UniProt P17612); format: functional
# [58] = biological target: T1, Glycogen synthase kinase-3 alpha; assay: Inhibition of Human GSK-3 alpha Activity Measured in Biochemical System Using Microfluidics - 2063-06_Inhibitor_Dose_DryPowder_Activity_Set2. [Related pubchem assays (depositor defined):AID2709]
# [59] = biological target: T2, Glycogen synthase kinase-3 beta; assay: Inhibition of Human GSK-3 beta Activity Measured in Biochemical System Using Microfluidics - 2063-05_Inhibitor_Dose_DryPowder_Activity_Set2. [Related pubchem assays (depositor defined):AID2709]
# [60] = microbe, parasite or virus in culture; format: functional; details: Mycobacterium tuberculosis
# [61] = biological target: Heat shock protein HSP 90-alpha (Homo sapiens, UniProt P07900); format: functional, organism-based
# [62] = A Cell Based Secondary Assay to Explore Cytotoxicity in THP-1 Cells of Compounds that Modulate Mycobacterium tuberculosis in Media Containing Glycerol versus Media without Glycerol (2).; format: functional
# [63] = Vero cell cytotoxicity, cytotoxicity control for M. tuberculosis inhibitor project, purified and synthesized samples, set 3 (AID 504684); format: functional
# [64] = A Cell Based Secondary Assay to Explore Cytotoxicity in HepG2 Cells of Compounds that Modulate Mycobacterium tuberculosis in Media Containing Glycerol versus Media without Glycerol (2).; format: functional
# Chain of Dual specificity protein kinase CLK4 (Q9HAZ1 whole entry): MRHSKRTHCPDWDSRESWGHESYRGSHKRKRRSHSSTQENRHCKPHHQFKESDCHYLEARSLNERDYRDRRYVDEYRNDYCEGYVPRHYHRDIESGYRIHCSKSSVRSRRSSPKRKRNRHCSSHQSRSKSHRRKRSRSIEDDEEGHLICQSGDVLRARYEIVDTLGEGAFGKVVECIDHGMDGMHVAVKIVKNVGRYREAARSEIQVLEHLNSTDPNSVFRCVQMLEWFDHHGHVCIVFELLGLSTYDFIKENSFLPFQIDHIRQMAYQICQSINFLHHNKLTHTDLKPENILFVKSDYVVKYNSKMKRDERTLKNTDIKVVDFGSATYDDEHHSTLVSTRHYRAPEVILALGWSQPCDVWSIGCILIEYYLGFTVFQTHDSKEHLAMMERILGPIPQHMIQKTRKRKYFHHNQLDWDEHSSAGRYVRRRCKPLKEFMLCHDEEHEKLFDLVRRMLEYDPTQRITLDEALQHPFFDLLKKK
# Chain of Serine/threonine-protein kinase pim-1 (P11309 whole entry): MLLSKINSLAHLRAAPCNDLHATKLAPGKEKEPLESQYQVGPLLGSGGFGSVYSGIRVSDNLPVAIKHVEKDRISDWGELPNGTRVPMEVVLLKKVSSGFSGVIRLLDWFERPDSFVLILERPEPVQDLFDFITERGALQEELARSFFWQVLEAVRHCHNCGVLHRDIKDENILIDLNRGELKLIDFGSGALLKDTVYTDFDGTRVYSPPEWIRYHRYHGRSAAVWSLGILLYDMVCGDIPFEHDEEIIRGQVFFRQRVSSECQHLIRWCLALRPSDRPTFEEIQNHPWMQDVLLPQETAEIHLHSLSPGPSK
# Chain of Mitogen-activated protein kinase kinase kinase kinase 4 (O95819 whole entry): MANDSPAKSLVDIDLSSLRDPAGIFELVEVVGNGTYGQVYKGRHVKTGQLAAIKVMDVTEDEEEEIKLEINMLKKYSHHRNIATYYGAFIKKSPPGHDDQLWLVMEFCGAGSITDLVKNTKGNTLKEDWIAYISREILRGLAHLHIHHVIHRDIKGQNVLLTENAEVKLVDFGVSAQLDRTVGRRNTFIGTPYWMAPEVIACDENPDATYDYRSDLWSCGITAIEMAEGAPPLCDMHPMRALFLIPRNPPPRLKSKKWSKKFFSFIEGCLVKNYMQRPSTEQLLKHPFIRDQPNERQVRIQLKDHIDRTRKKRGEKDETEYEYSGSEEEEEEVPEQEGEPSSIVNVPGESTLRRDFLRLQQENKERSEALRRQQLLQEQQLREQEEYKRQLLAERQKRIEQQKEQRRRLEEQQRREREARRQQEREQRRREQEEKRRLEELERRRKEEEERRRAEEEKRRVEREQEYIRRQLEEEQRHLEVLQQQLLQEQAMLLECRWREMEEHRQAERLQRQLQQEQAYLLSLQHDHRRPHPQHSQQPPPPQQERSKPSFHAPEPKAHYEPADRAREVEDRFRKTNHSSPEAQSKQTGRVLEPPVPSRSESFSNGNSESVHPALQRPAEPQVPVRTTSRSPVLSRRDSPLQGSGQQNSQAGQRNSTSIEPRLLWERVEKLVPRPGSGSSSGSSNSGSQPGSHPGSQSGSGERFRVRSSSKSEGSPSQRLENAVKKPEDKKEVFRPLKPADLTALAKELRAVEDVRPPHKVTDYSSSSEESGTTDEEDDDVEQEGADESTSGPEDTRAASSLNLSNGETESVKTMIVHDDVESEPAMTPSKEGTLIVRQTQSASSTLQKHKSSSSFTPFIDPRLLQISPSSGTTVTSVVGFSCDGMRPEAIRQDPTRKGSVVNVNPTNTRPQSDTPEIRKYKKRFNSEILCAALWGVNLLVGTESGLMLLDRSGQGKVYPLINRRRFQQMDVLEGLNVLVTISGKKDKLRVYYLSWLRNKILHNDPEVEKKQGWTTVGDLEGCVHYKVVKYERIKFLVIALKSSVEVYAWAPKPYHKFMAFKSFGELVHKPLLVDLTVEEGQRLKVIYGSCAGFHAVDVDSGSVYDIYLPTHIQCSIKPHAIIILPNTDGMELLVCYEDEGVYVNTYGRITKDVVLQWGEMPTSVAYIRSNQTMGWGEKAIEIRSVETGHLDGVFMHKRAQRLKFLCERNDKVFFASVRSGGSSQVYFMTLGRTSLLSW
# T2 sequence (P49841 whole entry): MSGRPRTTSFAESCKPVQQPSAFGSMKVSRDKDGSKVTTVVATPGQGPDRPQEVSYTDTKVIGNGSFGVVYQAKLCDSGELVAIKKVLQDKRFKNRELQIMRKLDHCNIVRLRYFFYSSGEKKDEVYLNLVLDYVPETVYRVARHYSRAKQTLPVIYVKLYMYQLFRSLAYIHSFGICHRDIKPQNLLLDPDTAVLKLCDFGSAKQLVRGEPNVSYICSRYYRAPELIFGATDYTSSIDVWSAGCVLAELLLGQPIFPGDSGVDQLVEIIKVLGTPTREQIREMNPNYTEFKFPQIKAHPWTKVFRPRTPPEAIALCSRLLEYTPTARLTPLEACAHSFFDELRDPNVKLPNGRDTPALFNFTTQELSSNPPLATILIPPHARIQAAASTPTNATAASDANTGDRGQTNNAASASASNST
# T1 sequence (P49840 whole entry): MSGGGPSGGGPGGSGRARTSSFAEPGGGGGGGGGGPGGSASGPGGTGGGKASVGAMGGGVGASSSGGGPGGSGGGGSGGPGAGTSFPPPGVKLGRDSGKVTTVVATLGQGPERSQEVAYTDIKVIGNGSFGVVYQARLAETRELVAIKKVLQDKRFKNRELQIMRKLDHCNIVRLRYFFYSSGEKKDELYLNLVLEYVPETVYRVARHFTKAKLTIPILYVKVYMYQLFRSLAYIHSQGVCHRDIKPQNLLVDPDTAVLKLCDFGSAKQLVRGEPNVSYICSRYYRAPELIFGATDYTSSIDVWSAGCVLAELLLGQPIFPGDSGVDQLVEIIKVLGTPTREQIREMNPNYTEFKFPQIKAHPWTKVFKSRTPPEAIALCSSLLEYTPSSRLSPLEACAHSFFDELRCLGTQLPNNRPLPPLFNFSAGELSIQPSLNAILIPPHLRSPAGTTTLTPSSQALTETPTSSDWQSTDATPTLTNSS
# Chain of Macrophage-stimulating protein receptor (Q04912 25-304 limits assumed): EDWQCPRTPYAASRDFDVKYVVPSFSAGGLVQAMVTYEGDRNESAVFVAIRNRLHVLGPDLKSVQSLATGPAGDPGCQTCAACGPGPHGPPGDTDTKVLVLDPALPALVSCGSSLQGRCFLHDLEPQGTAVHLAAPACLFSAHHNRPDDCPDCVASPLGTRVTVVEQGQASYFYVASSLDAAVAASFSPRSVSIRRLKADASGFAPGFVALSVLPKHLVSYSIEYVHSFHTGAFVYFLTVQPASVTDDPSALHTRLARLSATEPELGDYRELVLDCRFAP
# Chain of Macrophage-stimulating protein receptor (Q04912 310-1400 limits assumed): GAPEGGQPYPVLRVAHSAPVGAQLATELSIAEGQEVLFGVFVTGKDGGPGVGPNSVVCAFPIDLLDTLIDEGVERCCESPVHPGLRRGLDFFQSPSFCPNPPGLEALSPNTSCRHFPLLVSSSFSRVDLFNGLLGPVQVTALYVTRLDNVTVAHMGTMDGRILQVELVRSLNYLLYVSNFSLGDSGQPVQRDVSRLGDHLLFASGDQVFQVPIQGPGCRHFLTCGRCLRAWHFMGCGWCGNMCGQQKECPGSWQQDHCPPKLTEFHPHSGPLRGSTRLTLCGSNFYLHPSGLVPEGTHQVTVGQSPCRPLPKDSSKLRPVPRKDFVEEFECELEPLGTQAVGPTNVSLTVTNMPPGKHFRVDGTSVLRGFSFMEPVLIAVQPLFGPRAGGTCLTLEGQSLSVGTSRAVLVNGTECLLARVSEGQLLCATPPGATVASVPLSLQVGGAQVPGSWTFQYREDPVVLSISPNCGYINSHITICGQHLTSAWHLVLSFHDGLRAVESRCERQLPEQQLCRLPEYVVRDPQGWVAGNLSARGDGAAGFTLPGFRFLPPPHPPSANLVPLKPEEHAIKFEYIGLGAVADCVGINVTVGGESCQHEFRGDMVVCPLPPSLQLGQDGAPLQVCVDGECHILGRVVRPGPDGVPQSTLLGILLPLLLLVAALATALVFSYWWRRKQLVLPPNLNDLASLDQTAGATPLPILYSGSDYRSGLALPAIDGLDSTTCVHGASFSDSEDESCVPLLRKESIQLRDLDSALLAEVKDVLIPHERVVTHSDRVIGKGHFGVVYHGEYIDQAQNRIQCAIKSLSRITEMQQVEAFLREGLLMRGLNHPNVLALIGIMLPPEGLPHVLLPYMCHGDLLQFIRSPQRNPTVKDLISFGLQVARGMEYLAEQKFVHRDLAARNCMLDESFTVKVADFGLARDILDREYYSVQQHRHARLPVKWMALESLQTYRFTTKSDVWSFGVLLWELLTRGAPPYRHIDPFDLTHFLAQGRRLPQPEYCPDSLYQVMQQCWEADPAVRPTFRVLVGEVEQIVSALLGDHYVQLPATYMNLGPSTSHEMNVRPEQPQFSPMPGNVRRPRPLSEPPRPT
# Chain of Tyrosine-protein kinase Lck (P06239 whole entry): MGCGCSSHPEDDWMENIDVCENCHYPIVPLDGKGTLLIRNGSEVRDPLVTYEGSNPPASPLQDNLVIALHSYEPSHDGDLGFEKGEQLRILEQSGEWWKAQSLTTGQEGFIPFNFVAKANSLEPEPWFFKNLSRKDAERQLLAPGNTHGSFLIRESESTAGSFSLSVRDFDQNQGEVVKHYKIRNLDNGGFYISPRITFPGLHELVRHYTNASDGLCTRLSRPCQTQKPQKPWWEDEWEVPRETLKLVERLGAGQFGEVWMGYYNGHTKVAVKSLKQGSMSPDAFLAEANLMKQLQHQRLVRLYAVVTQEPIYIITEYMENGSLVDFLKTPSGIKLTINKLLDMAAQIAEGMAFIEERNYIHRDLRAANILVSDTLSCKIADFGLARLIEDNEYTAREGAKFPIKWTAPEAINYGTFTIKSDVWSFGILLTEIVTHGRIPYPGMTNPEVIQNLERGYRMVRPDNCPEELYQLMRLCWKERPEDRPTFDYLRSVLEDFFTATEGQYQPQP
compound,measurement,setting,value
O=C(c1ccc(Cl)cc1)N1CCN(c2ccnc3cc(Cl)ccc23)CC1,EC50,[1],> 150 µM (inactive)
same,EC50,[2],0.742 µM (active)
same,EC50,[3],1.34 µM (active)
same,EC50,[4],> 180 µM (inactive)
same,EC50,[5],> 60 µM (not active)
same,AC50,[6],0.522 µM (active)
same,AC50,[7],16.4 µM (active)
same,AC50,[8],0.306 µM (active)
same,AC50,[8]; Candida albicans,0.362 µM (active)
same,AC50,[9],0.87 µM (active)
same,AC50,[10],3.73 µM (active)
same,AC50,[11],3.46 µM (active)
same,AC50,[12],22.9 µM (active)
same,EC50,[13],> 150 µM (inactive)
same,IC50,[14],8.3 µM (active)
Nc1ccc2c(C(=O)O)n(-c3ccccc3)nc2c1,Ki,[15],> 3.98 µM (inactive)
same,Ki,[16],> 6.31 µM (inactive)
same,Ki,[17],> 3.98 µM (inactive)
same,Ki,[18],> 6.31 µM (inactive)
same,Ki,[19],> 5.01 µM (inactive)
same,Ki,[20],> 3.98 µM (inactive)
same,Ki,[21],> 5.01 µM (inactive)
same,Ki,[22],> 6.31 µM (inactive)
same,Ki,[23],1.26 µM (active)
same,Ki,[24],> 6.31 µM (inactive)
same,Ki,[25],> 5.01 µM (inactive)
same,Ki,[26],> 3.98 µM (inactive)
same,Ki,[27],2.51 µM (active)
same,Ki,[28],> 5.01 µM (inactive)
same,Ki,[29],> 3.98 µM (inactive)
same,Ki,[30],0.794 µM (active)
same,Ki,[31],> 6.31 µM (inactive)
same,Ki,[32],> 3.98 µM (inactive)
same,Ki,[33],> 3.98 µM (inactive)
same,Ki,[34],0.398 µM (active)
same,Ki,[35],> 3.98 µM (inactive)
same,Ki,[36],2.51 µM (active)
same,Ki,[37],> 6.31 µM (inactive)
same,Ki,[38],> 3.98 µM (inactive)
same,Ki,[39],> 6.31 µM (inactive)
same,Ki,[40],2 µM (active)
same,Ki,[41],3.16 µM (active)
same,Ki,[42],> 3.98 µM (inactive)
same,Ki,[43],> 3.98 µM (inactive)
same,Ki,[44],> 3.98 µM (inactive)
same,Ki,[45],0.501 µM (active)
same,Ki,[46],> 5.01 µM (inactive)
same,Ki,[47],> 3.98 µM (inactive)
same,Ki,[48],> 3.98 µM (inactive)
same,Ki,[49],1 µM (active)
same,Ki,[50],> 3.98 µM (inactive)
same,Ki,[51],> 3.98 µM (inactive)
O=c1cc(-c2ccncc2)nc(NCc2cc(F)cc(F)c2)[nH]1,Ki,[22],6.31 µM (active)
same,Ki,[52],0.00631 µM (active)
same,Ki,[53],0.631 µM (active)
same,Ki,[54],0.398 µM (active)
same,Ki,[55],2 µM (active)
same,Ki,[56],0.2 µM (active)
same,Ki,[57],6.31 µM (active)
same,Ki,[45],0.0126 µM (active)
same,Ki,[46],0.0631 µM (active)
COC(=O)c1nnn(-c2nonc2N)c1CSc1nc2ccccc2s1,AC50,[58],4.24 µM (active)
same,AC50,[59],1.31 µM (active)
CCC(C)Nc1ccc(NC(C)CC)cc1 (stereo not drawn),CC50,[60],15.9 µM (active)
same,AC50,[61],4.52 µM (active)
same,CC50,[62],3.8 µM (active)
same,CC50,[63],11.2 µM (active)
same,CC50,[64],6.68 µM (active)
